Measured values: patent publication US5266594A, “Inhibitors of nitric oxide synthase and use thereof to prevent glutamate neurotoxicity” (priority 1992, dated 1993)
pEC50: −log10 of the molar value. “Also recorded” adds a separate entry of the source. Where two headings read alike, the source gives them in different places.

Assays:
[1] = target: brain NOS (cerebellar NOS) (Rattus norvegicus, UniProt P29476); experiment: inhibition of NOS activity, conversion of [^3 H]arginine to [^3 H]citrulline, cerebellar homogenates/supernatants in vitro
From the text: Inhibitors of NOS are compounds which compete for the substrate binding site of NOS or other sites on the enzyme, and include both reversible and irreversible inhibitors. The present invention contemplates the use of any physiologically acceptable inhibitor which inhibits NOS activity. The effectiveness of a compound, and its relative potency as an NOS inhibitor, can be tested and routinely determined by measuring inhibition of NOS activity by monitoring the conversion of arginine to citrulline by NOS in, for example, cerebellar homogenates. A reduction in citrulline formation indicates inhibitory activity of the compound. The percent reduction in citrulline formation, compared to the amount of citrulline formed in the absence of the compound being tested, indicates the potency of the compound as an NOS inhibitor.
Rat cerebella were homogenized in 10 vols. (w/v) […] Tris (pH 7.4), 2 mM EDTA. Homogenates were centrifuged at 10,000×g for 15 minutes at 4° C. Supernatant preparations were used in the enzyme assays. Cerebellar tissue was dialyzed (Spectra/Por, 10,000 MWCO, EDTA-treated cellulose dialysis tubing) against 20 mM Tris (pH 7.4), 2 mM EDTA (300 ml×2) for 24 hours at 4° C.
Cerebellar homogenates were incubated with arginine derivatives for one hour at 4° C., and dialyzed overnight. Aliquots (25 μg protein) were assayed for NOS activity before and after dialysis.
NOS activity was measured by monitoring the conversion of [^3 H]arginine to [^3 H]citrulline as described by Bredt and Snyder (Proc. Natl. Acad. Sci USA (1990) 87682-685). Briefly, enzyme assays contained 25 μl of soluble tissue, 50 μl of […] [^3 H]arginine and 1 mM NADPH, and 25 μl of 3 mM CaCl2. After a 15 minute incubation at room temperature, the assays were terminated with 3 ml of 20 mM Hepes (pH 5.5) with 2 mM EDTA, and were applied to 0.5 ml columns of Dowex AG50WX8 (Na^+ form). [^3 H]citrulline was quantified by liquid scintillation spectroscopy of the 3 ml flow-through.
Accordingly, the effects of 2, 4 and 24 hours of preincubations of cerebellar supernatants (FIG. 2A) and activated macrophage homogenates (FIG. 2B) with NO2 Arg were examined. The preincubation was conducted at 4° C. since NOS is unstable at higher temperature for long periods of time. Enzymatic incubation was conducted for only 5 minutes to minimize any reaction of the inhibitor with the enzyme in the course of the incubation procedure.
Cerebellar supernatants were made as described in Example 1.

cortical cell cultures = experiment: cells; format: cell-based, rat; details: for pEC50: cortical cultures
Description: Primary dissociated cell cultures were prepared from fetal rats (13-to 14-day gestation for cortex and caudate-putamen cultures and 19- to 20-day gestation for hippocampal cultures). The tissue of interest was dissected, incubated for 15 minutes in 0.027% trypsin in Brooks-Logan solution (5% phosphate-buffered saline/0.04M sucrose/10 mM Hepes/0.03M glucose, pH 7.4), and then transferred to modified Eagle's medium (MEM) 10% horse serum/10% fetal bovine serum/2 mM glutamine for trituration. Dissociated cells were plated at a density of 3-4×10^5 cells per well in polyornithine-coated 15-mm multiwell plates. After 4 days the cells were treated with 10 μg of 5-fluoro-2'-deoxyuridine to prevent proliferations of noneuronal cells. Cells were maintained in MEM/5% horse serum/2 mM glutamine in 8% CO2 /humidified atmosphere at 37° C. The medium was changed twice weekly. Mature neurons (3-4 weeks) were used.
Cells were exposed to excitatory amino acids according to the method of Koh and Choi (J. Neurosci. (1988) 8:2153-2163). Before exposure, the cells were washed three times with Tris-buffered control salt solution (CSS), containing 120 mM NaCl/5.4 mM KCl/1.8 mM CaCl2 /25 mM Tris hydrochloride, pH 7.4 at room temperature/15 mM glucose. Brief exposures to glutamate, NMDA (plus 10 μM glycine), quisqualate, and sodium nitroprusside (SNP) were performed for 5 minutes in CSS. The exposure solution was then washed away and replaced by MEM with 21 mM glucose; then the cells were placed in an incubator for 20-24 hour. Long exposures to kainate were performed in MEM/21 mM glucose for 20-24 hour in the incubator. After exposure to the excitatory amino acids, the medium was replaced by CSS/0.4% trypan blue, which stains nonviable cells. Two to four photographs (10-20×) were made of each well, and viable versus nonviable cells were counted. The cytotoxicity data represent 6-24 separate wells assayed per data point, with ≈500-1500 cells counted per well. Neuronal cell injury was also assessed by measuring the release of lactate dehydrogenase by damaged or destroyed cells into the extracellular fluid following drug exposure.
Before initiating cytotoxicity experiments with NOS inhibitors, the potency of NMDA applied for 5 minutes in inducing cell death was evaluated by examining exclusion of 0.4% trypan blue by viable cells or measuring lactate dehydrogenase released by damaged or destroyed cells into the extracellular fluid.
To examine the role of NO in other forms of glutamate neurotoxicity, the effects of NO2 Arg cytotoxicity induced by quisqualate, kainate, and NMDA were compared. […] Data are means ±SEM (n=6-24). Cell death was determined by 0.4% trypan blue exclusion by viable cells.

Chain of brain NOS (cerebellar NOS) (P29476 whole entry): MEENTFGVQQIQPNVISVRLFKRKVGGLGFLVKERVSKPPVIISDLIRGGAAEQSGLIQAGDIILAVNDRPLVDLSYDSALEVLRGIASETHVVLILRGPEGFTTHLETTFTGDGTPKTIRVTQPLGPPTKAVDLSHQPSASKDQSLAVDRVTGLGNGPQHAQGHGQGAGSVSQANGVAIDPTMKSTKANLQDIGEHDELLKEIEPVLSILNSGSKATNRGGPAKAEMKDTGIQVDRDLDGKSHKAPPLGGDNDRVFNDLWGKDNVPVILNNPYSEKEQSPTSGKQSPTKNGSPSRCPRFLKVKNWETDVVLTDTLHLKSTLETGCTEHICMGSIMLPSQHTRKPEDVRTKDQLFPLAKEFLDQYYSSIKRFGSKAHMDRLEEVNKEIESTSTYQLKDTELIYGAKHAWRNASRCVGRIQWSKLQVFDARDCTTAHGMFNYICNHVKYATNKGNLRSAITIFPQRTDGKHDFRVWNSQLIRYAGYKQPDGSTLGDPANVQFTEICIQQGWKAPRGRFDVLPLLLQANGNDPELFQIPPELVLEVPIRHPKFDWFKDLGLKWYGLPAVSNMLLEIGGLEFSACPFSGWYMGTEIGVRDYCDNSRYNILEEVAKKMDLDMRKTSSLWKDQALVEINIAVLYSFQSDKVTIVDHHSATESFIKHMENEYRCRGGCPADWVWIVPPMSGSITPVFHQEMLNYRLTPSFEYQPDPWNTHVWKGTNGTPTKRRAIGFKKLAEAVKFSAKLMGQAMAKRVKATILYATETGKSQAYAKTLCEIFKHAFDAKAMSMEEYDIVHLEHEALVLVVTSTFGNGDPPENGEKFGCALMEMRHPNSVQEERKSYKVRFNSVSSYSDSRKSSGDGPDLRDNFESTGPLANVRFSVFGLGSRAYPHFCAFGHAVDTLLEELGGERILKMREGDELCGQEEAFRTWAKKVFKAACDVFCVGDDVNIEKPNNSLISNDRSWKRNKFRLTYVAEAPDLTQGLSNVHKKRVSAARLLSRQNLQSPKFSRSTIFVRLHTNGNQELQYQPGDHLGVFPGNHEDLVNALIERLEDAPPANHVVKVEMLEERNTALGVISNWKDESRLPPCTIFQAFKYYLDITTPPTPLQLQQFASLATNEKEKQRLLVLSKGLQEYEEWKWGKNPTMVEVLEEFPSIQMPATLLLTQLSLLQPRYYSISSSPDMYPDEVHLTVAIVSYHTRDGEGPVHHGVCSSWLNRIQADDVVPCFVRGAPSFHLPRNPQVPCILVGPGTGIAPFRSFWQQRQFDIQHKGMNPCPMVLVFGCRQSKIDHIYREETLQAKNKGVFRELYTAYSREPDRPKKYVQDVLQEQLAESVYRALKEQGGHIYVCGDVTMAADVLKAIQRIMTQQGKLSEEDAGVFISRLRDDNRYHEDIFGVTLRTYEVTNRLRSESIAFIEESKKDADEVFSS

N=C(NCCC[C@H](N)C(=O)O)N[N+](=O)[O-] [NO2 Arg, L-N^ω -nitroarginine] was tested, and the “effect of preincubation on potency of inhibition” value ([1]; 2 hour preincubation at 4° C., FIG. 2A) was “increases the potency of inhibition”, the “nature of inhibition of cerebellar NOS in vitro” value ([1]; FIG. 1, before and after dialysis) was “irreversible inhibition” and the “relative potency as inhibitor of NOS activity” value ([1]; cerebellar supernatant preparations, FIG. 1) was “more potent inhibitor of NOS activity than MeArg”. For the same compound, the “augmentation of potency by preincubation” value ([1]; preincubation for 24 hours at 4° C.) was “about 15 times”, the “prevention of neurotoxicity, in words” value (cortical cell cultures) was “prevent neurotoxicity in proportion to their relative potencies as NOS inhibitors” and the “Cell death, % ± SEM (kainate + NO2 Arg)” value (cortical cell cultures; 100 μM kainate +500 μM NO2 Arg) was 87.0 ± 3.2%. For the same compound, the “Cell death, % ± SEM (NMDA + NO2 Arg)” value (cortical cell cultures; 300 μM NMDA + 10 μM glycine +100 μM NO2 Arg) was 17.7 ± 3.0%, the “Cell death, % ± SEM (NMDA + NO2 Arg + L-Arg)” value (cortical cell cultures; 300 μM NMDA + 10 μM glycine +100 μM NO2 Arg + 1mM L-Arg) was 63.4 ± 5.5% and the “effect on NMDA cytotoxicity (photomicrographs, FIG. 4)” value (cortical cell cultures; 300 μM NMDA plus 10 μM glycine plus 100 NO2 Arg) was “inhibition of NMDA cytotoxicity”. For the same compound, the “Cell death, % ± SEM (glutamate + NO2 Arg + L-Arg)” value (cortical cell cultures; 500 μM glutamate +100 μM NO2 Arg + 1 Mm L-Arg) was 48.2 ± 3.2%, the “Cell death, % ± SEM (glutamate + NO2 Arg)” value (cortical cell cultures; 500 μM glutamate +100 μN NO2 Arg) was 28.9 ± 6.0% and the “Cell death, % ± SEM (quisqualate + NO2 Arg)” value (cortical cell cultures; 500 μM quisqualate +500 μM NO2 Arg) was 51.1 ± 2.4%. The “Cell death, % ± SEM (quisqualate + NO2 Arg + L-Arg)” value (cortical cell cultures; 500 μM quisqualate +500 μM NO2 Arg + mM L-Arg) was 66.6 ± 5.3%, the inhibition at 100 µM (cortical cell cultures; Rattus norvegicus, 100 μM NO2 Arg applied simultaneously with NMDA, read-out: reduction of NMDA-induced cell death) was 70% and the pEC50 (cortical cell cultures; Rattus norvegicus, NMDA and related excitatory amino acids, read-out: EC50 for preventing neurotoxicity elicited by N-methyl-D-aspartate) was 4.70. The pEC50 (cortical cell cultures; Rattus norvegicus, NMDA, read-out: concentration giving 50% prevention of NMDA-induced cell death) was roughly 4.70, the “protection against kainate-induced cell death” value (cortical cell cultures; kainate) was “no protection against kainate-induced cell death” and the “protection against quisqualate-induced cell death” value (cortical cell cultures; quisqualate) was “A portion of cell death elicited by quisqualate is prevented; also recorded: higher concentrations of NO2 Arg are required than with NMDA toxicity”.
